Assay [1] has as its system Fusarium culmorum. The assay can be described thus: microbe, parasite or virus in culture. The assay is classed as cell-based. Conditions: 168 h.
In assay [2] the test system is Phytophthora infestans. The assay can be described thus: microbe, parasite or virus in culture. Conditions: 168 h, read-out: Fungal growth at 31 ppm (%) PHYTIN. The assay is classed as cell-based.

Our source for the activity values is patent EP3970494A1 (priority 2020, dated 2022).

In turn, `CNC(=O)/C(=N/OC)c1cccc(C)c1CO/N=C(\C)c1ncc(C(F)(F)F)s1` [Example 53, (2E)-2-Methoxyimino-N-methyl-2-[3-methyl-2-[[(E)-1-[5-(trifluoromethyl)thiazol-2-yl]ethylideneamino]oxymethyl]phenyl]acetamide] displayed an activity at 31 ppm in assay [1] of 21%.
Turning to `CNC(=O)/C(=N/OC)c1cccc(C)c1CO/N=C(\C)c1cccc(C)n1` [Example 81], the activity at 31 ppm in assay [2] is 0%; in assay [1] it was 9%.
Consider `CNC(=O)/C(=N/OC)c1cccc(C)c1CO/N=C(/c1nccs1)C(F)F` [Example 154], for which the activity at 31 ppm in assay [1] is 14%.
Consider `CNC(=O)/C(=N/OC)c1cccc(C)c1CO/N=C(\C)c1ccncc1` [Example 134], for which the activity at 31 ppm in assay [2] was determined as 0%; in assay [1] it was 20%.
In the case of `CNC(=O)/C(=N/OC)c1cccc(C)c1CO/N=C(\C)c1csc(C(F)(F)F)n1` [Example 115], the activity at 31 ppm in assay [2] worked out at 0%; in assay [1], 13%.
With `CO/N=C(/C(=O)OC)c1cccc(C)c1CO/N=C(\C)c1cscn1` [Example 126], in assay [2], the activity at 31 ppm amounted to 0%.
For `CNC(=O)/C(=N/OC)c1cccc(C)c1CO/N=C(\C)c1ccnc(C(F)(F)F)c1` [Example 48], the activity at 31 ppm in assay [2] is 1%; in assay [1], 17%.
`CO/N=C(/C(=O)OC)c1cccc(C)c1CO/N=C(\C)c1cc(C(F)(F)F)nn1C` [Example 117, Methyl (2E)-2-methoxyimino-2-[3-methyl-2-[[(E)-1-[2-methyl-5-(trifluoromethyl)pyrazol-3-yl]ethylideneamino]oxymethyl]phenyl]acetate] gave an activity at 31 ppm in assay [1] of 18%.
For the molecule `CNC(=O)/C(=N/OC)c1cccc(C)c1CO/N=C(\C)c1cc(C#N)cc(Cl)n1` [Example 63], the activity at 31 ppm in assay [2] came to 0%; in assay [1], 18%.
In assay [1], `CO/N=C(/C(=O)OC)c1cccc(C)c1CO/N=C(\C)c1cc(-c2ccc(F)cc2)on1` [Example 14] showed an activity at 31 ppm of 20%.
Take `CNC(=O)/C(=N/OC)c1cccc(C)c1CO/N=C(\C)c1cscn1` [Example 127]: in assay [2], the activity at 31 ppm was 0%.
Regarding `CNC(=O)/C(=N/OC)c1cccc(C)c1CO/N=C(\C)c1cc(N2CC(F)(F)C2)ccn1` [Example 90], the activity at 31 ppm in assay [2] came to 0%.
Turning to `CNC(=O)/C(=N/OC)c1cccc(C)c1CO/N=C(\C)c1cccnc1` [Example 135], the activity at 31 ppm was found to be 0% in assay [2] and 19% in assay [1].
For `CNC(=O)/C(=N/OC)c1cccc(C)c1CO/N=C(\C)c1ccc(C#CC2CC2)nc1` [Example 69], in that order: 0% and 11%.
With `CNC(=O)/C(=N/OC)c1cccc(C)c1CO/N=C(\C)c1cc(-c2ccc(F)cc2)on1` [Example 15], the activity at 31 ppm in assay [2] turned out to be 0%; in assay [1] it was 20%.
Turning to `CO/N=C(/C(=O)OC)c1cccc(C)c1CO/N=C(\C)c1ncc(-c2ccc(F)cc2)s1` [Example 79, Methyl (2E)-2-[2-[[(E)-1-[5-(4-fluorophenyl)thiazol-2-yl]ethylideneamino]oxymethyl]-3-methyl-phenyl]-2-methoxyimino-acetate], the figures for the activity at 31 ppm in assay [2] and in assay [1] were 17% and 13%, respectively.
On to `CNC(=O)/C(=N/OC)c1cccc(C)c1CO/N=C(\C)c1cc(C(F)(F)F)cc(C#N)n1` [Example 86], for which the activity at 31 ppm in assay [2] was found to be 0%; in assay [1], 16%.
In the case of `CNC(=O)/C(=N/OC)c1cccc(C)c1CO/N=C(\C)c1ccc(C#CC2CC2)cn1` [Example 112], the activity at 31 ppm in assay [2] came to 2%; in assay [1], 21%.
As to `CO/N=C(/C(=O)OC)c1cccc(C)c1CO/N=C(\C)c1cncc(F)c1` [Example 75], the activity at 31 ppm in assay [2] is 0%.
Consider `CNC(=O)/C(=N/OC)c1cccc(C)c1CO/N=C(\C)c1cncc(C(F)(F)F)c1` [Example 85, (2E)-2-methoxyimino-N-methyl-2-[3-methyl-2-[[(E)-1-[5-(trifluoromethyl)-3-pyridyl]-ethylideneamino]oxymethyl]phenyl]acetamide], for which the figures for the activity at 31 ppm in assay [2] and in assay [1] were 0% and 16%, respectively.
As to `CO/N=C(/C(=O)OC)c1cccc(C)c1CO/N=C(\C)c1ccc(Cl)c(C(F)(F)F)c1` [Example 82], the activity at 31 ppm stood at 3% in assay [2] and 17% in assay [1].
In the case of `CNC(=O)/C(=N/OC)c1cccc(C)c1CO/N=C(\C)c1ccc(Cl)nn1` [Example 92], the activity at 31 ppm in assay [2] amounted to 0%; in assay [1], 17%.
For `CNC(=O)/C(=N/OC)c1cccc(C)c1CO/N=C(\C)c1cc(C(F)(F)F)c(C#N)cn1` [Example 99], the activity at 31 ppm in assay [2] worked out at 20%.
Consider `CO/N=C(/C(=O)OC)c1cccc(C)c1CO/N=C(\C)c1cc(-c2ccc(Cl)cc2)on1` [Example 18], for which the activity at 31 ppm in assay [1] came out at 16%.
On to `CNC(=O)/C(=N/OC)c1cccc(C)c1CO/N=C(\C)c1cnc(C(F)(F)F)cn1` [Example 97, (2E)-2-methoxyimino-N-methyl-2-[3-methyl-2-[[(E)-1-[5-(trifluoromethyl)pyrazin-2-yl]ethylideneamino]oxymethyl]phenyl]acetamide], for which the activity at 31 ppm in assay [2] turned out to be 0%; in assay [1] it was 17%.
On to `CNC(=O)/C(=N/OC)c1cccc(C)c1CO/N=C(\C)c1cc(-c2cccc(C(F)(F)F)c2)on1` [Example 22, (2E)-2-Methoxyimino-N-methyl-2-[3-methyl-2-[[(E)-1-[5-[3-(trifluoromethyl)phenyl]-isoxazol-3-yl]ethylideneamino]oxymethyl]phenyl]acetamide], for which, in assay [2], the activity at 31 ppm was 17%.
`CNC(=O)/C(=N/OC)c1cccc(C)c1CO/N=C(\C)c1cn(C)nc1C(F)(F)F` [Example 52] returned an activity at 31 ppm in assay [1] of 12%.
The same measure, in the same setting: under `CO/N=C(/C(=O)OC)c1cccc(C)c1CO/N=C(\C)c1cnccc1C(F)(F)F` [Example 155] stands 18%.
On to `CO/N=C(/C(=O)OC)c1cccc(C)c1CO/N=C(\C)c1cc(-c2ccccc2)sn1` [Example 36], for which the activity at 31 ppm in assay [2] is 10%.
For the molecule `CO/N=C(/C(=O)OC)c1cccc(C)c1CO/N=C(\C)c1cc(C(F)(F)F)cc(Cl)n1` [Example 42], the activity at 31 ppm in assay [1] was found to be 10%.
In assay [1], `CO/N=C(/C(=O)OC)c1cccc(C)c1CO/N=C(\C)c1ncc(C(F)(F)F)s1` [Example 123, Methyl (2E)-2-methoxyimino-2-[3-methyl-2-[[(E)-1-[5-(trifluoromethyl)thiazol-2-yl]-ethylideneamino]oxymethyl]phenyl]acetate] had an activity at 31 ppm of 17%.
As for `CO/N=C(/C(=O)OC)c1cccc(C)c1CO/N=C(\C)c1cc(-c2ccccc2)on1` [Example 21], in assay [2], the activity at 31 ppm is 5%.
For the molecule `C=Cc1cnc(/C(C)=N/OCc2c(C)cccc2/C(=N\OC)C(=O)NC)s1` [Example 144], the activity at 31 ppm in assay [1] was determined as 14%.
For `CNC(=O)/C(=N/OC)c1cccc(C)c1CO/N=C(/c1nccs1)C1CC1` [Example 110], the activity at 31 ppm in assay [2] is 0%.
Regarding `CO/N=C(/C(=O)OC)c1cccc(C)c1CO/N=C(\C)c1ccc(C#CC2CC2)cn1` [Example 111], in assay [2], the activity at 31 ppm was 15%.
Regarding `CO/N=C(/C(=O)OC)c1cccc(C)c1CO/N=C(\C)c1ccccn1` [Example 129], the activity at 31 ppm in assay [2] was found to be 0%.
In assay [1], `CNC(=O)/C(=N/OC)c1cccc(C)c1CO/N=C(\C)c1nc(C(F)(F)F)cs1` [Example 95] registered an activity at 31 ppm of 17%.
